Data on 27 compounds can be found in ChEMBL document CHEMBL1132935, “Design and synthesis of aryloxyethyl thiocyanate derivatives as potent inhibitors of Trypanosoma cruzi proliferation” (J Med Chem, 2000).

Bounds are passed on as bounds.

For orientation: IC90 means the point of the concentration-response curve where the effect stands at 90%. A word on the IC50: it is the point on the concentration scale where inhibition reaches its midpoint.

The test system of assay [1] is Trypanosoma cruzi. Nature of the assay: 90% inhibitory concentration against the growth of Trypanosoma cruzi (Epimastigotes). It counts as functional.
The test system of assay [2] is Trypanosoma cruzi. Kind of assay: 50% inhibitory concentration against the growth of intracellular Trypanosoma cruzi. It counts as functional, organism-based.
The test system of assay [3] is Trypanosoma cruzi. Nature of the assay: 50% inhibitory concentration against the growth of Trypanosoma cruzi (Epimastigotes). It counts as functional, organism-based.

For `N#CSCCOc1ccc(Oc2ccccc2)cc1`, in assay [1], the IC90 was determined as 3.5 µM. In assay [2], this compound displayed an IC50 of 16 µM. `Cc1ccccc1Oc1ccc(OCCOC2CCCCO2)cc1` (stereo not drawn) yielded a 50% inhibitory concentration (IC50) in assay [3] of 143 µM. Still for that read-out and setting: the value for `Cc1cccc(C)c1Oc1ccc(OCCOC2CCCCO2)cc1` (stereo not drawn) was above 60 µM; that for `Brc1cccc(Oc2ccc(OCCOC3CCCCO3)cc2)c1` (stereo not drawn) was 138 µM; that for `N#CSCc1ccc(Oc2ccccc2)cc1` was 18.7 µM. Turning to `N#CSCCOc1ccc(Cl)cc1Cl`, the IC50 in assay [3] was 1 µM; in assay [2], above 100 µM. The IC90 in assay [1] amounted to 30 µM. In the case of `CC(=O)N(CCSC#N)c1ccc(Oc2ccccc2)cc1`, 14.4 µM corresponded to half-maximal inhibition in assay [3] (IC50). The same measure, in the same setting: the value for `Brc1cccc(OCCOC2CCCCO2)c1` (stereo not drawn) was 104 µM; that for `N#CSCCOc1ccc(Oc2cccc(Br)c2)cc1` was 2.9 µM. As for `O=c1c2ccccc2oc2ccc(OCCOC3CCCCO3)cc12` (stereo not drawn), the IC50 in assay [3] was above 60 µM. In the case of `Clc1ccc(OCCOC2CCCCO2)cc1` (stereo not drawn), in assay [3], the IC50 was above 390 µM. On to `Cc1ccccc1Oc1ccc(OCCSC#N)cc1`, for which the IC50 stood at 2.7 µM in assay [3] and 41.7 µM in assay [2]. In addition, in assay [1], it took 3.5 µM to reach the 90% level (IC90). In assay [3], `CC(=O)N(CCOC1CCCCO1)c1ccc(Oc2ccccc2)cc1` (stereo not drawn) yielded an IC50 of 211 µM. The same measure, in the same setting: the value for `c1ccc(Oc2ccc(COC3CCCCO3)cc2)cc1` (stereo not drawn) was 102 µM; that for `N#CSCCOc1ccc(Oc2ccccc2)cc1Cl` was 24.5 µM. On to `CC(=O)N(CCO)c1ccc(Oc2ccccc2)cc1`, for which, in assay [3], half-maximal inhibition (IC50) was put at 277 µM. For `N#CSCCOc1ccc(Oc2ccccc2)cc1I`, the IC50 in assay [3] was 1.8 µM; in assay [2], above 100 µM. For the same compound, the IC90 in assay [1] stood at 23 µM.

Compound `N#CSCCOc1ccc(Cl)cc1` showed an IC50 in assay [3] of 14.1 µM.

Regarding `N#CSCCOc1cccc(Br)c1`, the IC50 in assay [3] is below 4 µM. This compound also returned an IC90 in assay [1] of 27 µM.

In assay [3], `N#CSCCSc1ccc(Oc2ccccc2)cc1` returned an IC50 of 0.87 µM. In assay [1], this compound showed an IC90 of 32 µM. In the case of `N#CSCCOc1ccc(Oc2ccccc2)cc1Br`, the figures for the IC50 in assay [3] and in assay [2] were 1.4 µM and 64.5 µM, respectively. The same compound registered an IC90 in assay [1] of 18 µM.

In assay [3], `C[C@@H](COc1ccc(Oc2ccccc2)cc1)SC#N` returned an IC50 of 25 µM. For the compound `Ic1cc(Oc2ccccc2)ccc1OCCOC1CCCCO1` (stereo not drawn), the IC50 in assay [3] was 45 µM.

In assay [3], `N#CSCCNc1ccc(Oc2ccccc2)cc1` returned an IC50 of 141 µM. The same measure, in the same setting: the value for `C[C@H](COc1ccc(Oc2ccccc2)cc1)SC#N` was above 82 µM; that for `N#CSCCOc1ccc2oc3ccccc3c(=O)c2c1` was 54 µM. `c1ccc(Oc2ccc(SCCOC3CCCCO3)cc2)cc1` (stereo not drawn) returned an IC50 in assay [3] of 291 µM.
